Measurements reported in ChEMBL document CHEMBL1201862, “PubChem BioAssay data set” (2004).
Active and inactive are the calls of the source.

What was measured:
[1] = target: T1, Nucleotide-binding oligomerization domain-containing protein 1 (Homo sapiens, UniProt Q9Y239); experiment: SAR analysis of NF-kappaB dependent luciferase using DAP as an inducer - Set 2. [Related pubchem assays (depositor defined):AID1566, AID1575, AID1578, AID1579, AID1849, AID1852, AID2264]; type: functional
T1 sequence (Q9Y239 whole entry): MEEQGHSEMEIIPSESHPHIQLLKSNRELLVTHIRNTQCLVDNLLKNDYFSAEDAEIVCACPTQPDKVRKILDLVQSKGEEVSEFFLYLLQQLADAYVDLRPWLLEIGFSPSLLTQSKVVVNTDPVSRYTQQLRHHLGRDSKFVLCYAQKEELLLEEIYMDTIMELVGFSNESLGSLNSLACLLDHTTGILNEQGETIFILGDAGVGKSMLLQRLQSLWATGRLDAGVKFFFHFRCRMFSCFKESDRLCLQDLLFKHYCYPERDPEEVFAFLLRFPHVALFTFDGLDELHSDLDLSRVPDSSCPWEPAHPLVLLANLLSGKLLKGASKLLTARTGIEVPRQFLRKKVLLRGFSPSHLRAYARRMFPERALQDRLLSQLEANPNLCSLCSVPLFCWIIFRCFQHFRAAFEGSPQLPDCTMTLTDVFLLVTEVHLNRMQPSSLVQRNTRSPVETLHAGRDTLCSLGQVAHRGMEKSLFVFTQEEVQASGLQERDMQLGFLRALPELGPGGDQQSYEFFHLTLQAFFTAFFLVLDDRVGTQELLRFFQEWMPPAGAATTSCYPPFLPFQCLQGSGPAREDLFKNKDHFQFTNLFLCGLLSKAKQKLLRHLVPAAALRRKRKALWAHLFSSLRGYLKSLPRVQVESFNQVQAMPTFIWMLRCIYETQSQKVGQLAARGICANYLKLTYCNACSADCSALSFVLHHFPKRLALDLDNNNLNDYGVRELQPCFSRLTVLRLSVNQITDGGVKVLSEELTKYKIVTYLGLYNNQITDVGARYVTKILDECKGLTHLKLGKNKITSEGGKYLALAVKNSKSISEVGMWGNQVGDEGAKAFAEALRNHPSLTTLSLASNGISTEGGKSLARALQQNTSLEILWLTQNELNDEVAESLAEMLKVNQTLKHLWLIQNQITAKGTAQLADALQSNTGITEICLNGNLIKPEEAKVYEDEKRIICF

[2] = target: T2, Interleukin-8 (Homo sapiens, UniProt P10145); experiment: SAR analysis of Tumor necrosis factor alpha (TNF-alpha) induced IL-8 secretion in MCF-7/NOD1 cells - Set 2. [Related pubchem assays (depositor defined):AID1575, AID2250, AID2260]; type: functional, cell-based
T2 sequence (P10145 whole entry): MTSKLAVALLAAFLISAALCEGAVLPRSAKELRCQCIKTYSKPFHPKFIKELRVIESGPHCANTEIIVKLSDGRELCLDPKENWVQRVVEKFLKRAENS

[3] = target: T2, Interleukin-8; experiment: SAR analysis of GM-Tri-DAP induced IL-8 secretion in MCF-7/NOD1 cells - Set 2. [Related pubchem assays (depositor defined):AID1575, AID1578, AID2333]; type: functional, cell-based
[4] = target: Nucleotide-binding oligomerization domain-containing protein 2 (Homo sapiens, UniProt Q9HC29); experiment: NOD2 inhibitors, SAR follow-up, set 2 (AID 2475); type: functional
[5] = tested on: HEK293; experiment: SAR analysis of compounds that are cytotoxic to HEK293 - Set 2. [Related pubchem assays (depositor defined):AID1575, AID1578, AID1849, AID2001, AID2333, AID2334, AID2335, AID2337, AID2800]; type: functional, cell-based; details: Homo sapiens
[6] = target: T1, Nucleotide-binding oligomerization domain-containing protein 1; experiment: SAR analysis of compounds that inhibit NOD1 - Set 2. [Related pubchem assays (depositor defined):AID1566, AID1575, AID1578, AID1849, AID1852, AID2333, AID2335, AID2798]; type: functional
[7] = target: T1, Nucleotide-binding oligomerization domain-containing protein 1; experiment: SAR analysis of compounds that inhibit NOD1 - Set 3. [Related pubchem assays (depositor defined):AID1566, AID1575, AID1578, AID1849, AID1852, AID2333, AID2335, AID2466]; type: functional
[8] = tested on: HEK293; experiment: SAR analysis of compounds that are cytotoxic to HEK293 - Set 3. [Related pubchem assays (depositor defined):AID1575, AID1578, AID1848, AID1849, AID2001, AID2333, AID2334, AID2335, AID2337, AID2469]; type: functional, cell-based; details: Homo sapiens
[9] = target: Large T antigen (Simian virus 40, UniProt P03070); type: functional, Betapolyomavirus macacae;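 further: Confirmatory-stage PubChem screen for compounds that inhibit SV40 T antigen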
[10] = target: Induced myeloid leukemia cell differentiation protein Mcl-1 (Homo sapiens, UniProt Q07820); type: functional
[11] = target: Dual specificity protein phosphatase 3 (Homo sapiens, UniProt P51452); experiment: SAR VHR1 Fluorescent Assay for In Vitro dose response studies. [Related pubchem assays (depositor defined):AID1654, AID1661, AID1878, AID1992, AID2004, AID2070, AID2085]; type: functional
[12] = tested on: Salmon testes DNA; experiment: DNA intercalators displacing acridine orange, dose response, artefact control for KSHV LANA DNA-binding inhibitor project, biochemical, fluorescence polarization, cherry-picked samples, set 2 (AID 504727); set-up: species or system Salmonidae
[13] = target: T3, ORF 73 (Human herpesvirus 8, UniProt O40947); experiment: inhibitors of C-LANA binding to LBS DNA, dose response, biochemical, fluorescence polarization, cherry-picked samples (AID 504725); set-up: species or system Human gammaherpesvirus 8;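 further: fluorescence polarization of a labeled DNA duplex reporting LANA DNA binding; potency is for inhibitors that block LANA binding to the DNA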
T3 sequence (O40947 whole entry): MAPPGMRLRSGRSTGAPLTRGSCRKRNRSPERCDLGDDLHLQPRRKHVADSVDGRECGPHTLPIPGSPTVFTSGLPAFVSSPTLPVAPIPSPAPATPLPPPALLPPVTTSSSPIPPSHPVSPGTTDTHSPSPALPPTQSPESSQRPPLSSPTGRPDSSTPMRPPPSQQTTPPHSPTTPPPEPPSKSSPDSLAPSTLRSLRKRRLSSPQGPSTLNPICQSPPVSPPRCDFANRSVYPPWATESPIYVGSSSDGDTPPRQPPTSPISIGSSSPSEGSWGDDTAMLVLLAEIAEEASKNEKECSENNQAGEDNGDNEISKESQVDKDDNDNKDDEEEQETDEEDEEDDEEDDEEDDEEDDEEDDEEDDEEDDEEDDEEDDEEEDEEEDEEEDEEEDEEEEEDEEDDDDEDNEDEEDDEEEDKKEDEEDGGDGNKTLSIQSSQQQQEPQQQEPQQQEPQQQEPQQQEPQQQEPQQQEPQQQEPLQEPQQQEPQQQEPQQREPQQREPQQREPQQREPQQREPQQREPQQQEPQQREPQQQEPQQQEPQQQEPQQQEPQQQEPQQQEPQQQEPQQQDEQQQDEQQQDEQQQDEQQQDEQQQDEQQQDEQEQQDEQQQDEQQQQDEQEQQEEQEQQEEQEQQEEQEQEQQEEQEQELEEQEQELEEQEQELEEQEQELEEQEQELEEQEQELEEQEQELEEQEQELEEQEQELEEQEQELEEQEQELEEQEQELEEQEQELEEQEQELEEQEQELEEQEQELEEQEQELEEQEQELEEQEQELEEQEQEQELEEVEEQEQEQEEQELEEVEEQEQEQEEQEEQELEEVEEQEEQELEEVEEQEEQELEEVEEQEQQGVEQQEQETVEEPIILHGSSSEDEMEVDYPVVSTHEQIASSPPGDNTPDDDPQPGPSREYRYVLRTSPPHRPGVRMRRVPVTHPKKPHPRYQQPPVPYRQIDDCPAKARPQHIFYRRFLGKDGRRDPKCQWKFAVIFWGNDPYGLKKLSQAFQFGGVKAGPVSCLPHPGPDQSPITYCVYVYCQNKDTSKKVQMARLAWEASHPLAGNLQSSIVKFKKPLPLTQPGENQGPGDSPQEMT

[14] = target: T4, Tyrosine-protein phosphatase non-receptor type 7 (Homo sapiens, UniProt P35236); experiment: redox-dependent HePTP inhibition, mechanism study, biochemical, fluorescence (AID 2068); type: functional
T4 sequence (P35236 whole entry): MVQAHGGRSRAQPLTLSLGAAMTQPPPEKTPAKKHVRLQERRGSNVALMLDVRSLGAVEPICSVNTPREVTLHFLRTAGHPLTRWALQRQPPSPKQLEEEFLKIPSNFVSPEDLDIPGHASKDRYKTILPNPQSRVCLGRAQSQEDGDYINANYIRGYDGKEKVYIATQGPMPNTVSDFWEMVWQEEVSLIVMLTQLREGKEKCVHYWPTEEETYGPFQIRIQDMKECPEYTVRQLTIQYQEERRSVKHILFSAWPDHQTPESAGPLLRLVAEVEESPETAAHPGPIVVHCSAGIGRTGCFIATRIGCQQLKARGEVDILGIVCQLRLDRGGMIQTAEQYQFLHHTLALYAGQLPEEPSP

[15] = target: Eukaryotic translation initiation factor 4E (Mus musculus, UniProt P63073); experiment: eIF4E–eIF4G protein interaction inhibitors, dose response, biochemical, TR-FRET (AID 855); type: functional;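 further: potency for disrupting eIF4E binding to eIF4GI seen as loss of FRET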
[16] = target: T5, Apoptotic protease-activating factor 1 (Homo sapiens, UniProt O14727); type: functional
T5 sequence (O14727 whole entry): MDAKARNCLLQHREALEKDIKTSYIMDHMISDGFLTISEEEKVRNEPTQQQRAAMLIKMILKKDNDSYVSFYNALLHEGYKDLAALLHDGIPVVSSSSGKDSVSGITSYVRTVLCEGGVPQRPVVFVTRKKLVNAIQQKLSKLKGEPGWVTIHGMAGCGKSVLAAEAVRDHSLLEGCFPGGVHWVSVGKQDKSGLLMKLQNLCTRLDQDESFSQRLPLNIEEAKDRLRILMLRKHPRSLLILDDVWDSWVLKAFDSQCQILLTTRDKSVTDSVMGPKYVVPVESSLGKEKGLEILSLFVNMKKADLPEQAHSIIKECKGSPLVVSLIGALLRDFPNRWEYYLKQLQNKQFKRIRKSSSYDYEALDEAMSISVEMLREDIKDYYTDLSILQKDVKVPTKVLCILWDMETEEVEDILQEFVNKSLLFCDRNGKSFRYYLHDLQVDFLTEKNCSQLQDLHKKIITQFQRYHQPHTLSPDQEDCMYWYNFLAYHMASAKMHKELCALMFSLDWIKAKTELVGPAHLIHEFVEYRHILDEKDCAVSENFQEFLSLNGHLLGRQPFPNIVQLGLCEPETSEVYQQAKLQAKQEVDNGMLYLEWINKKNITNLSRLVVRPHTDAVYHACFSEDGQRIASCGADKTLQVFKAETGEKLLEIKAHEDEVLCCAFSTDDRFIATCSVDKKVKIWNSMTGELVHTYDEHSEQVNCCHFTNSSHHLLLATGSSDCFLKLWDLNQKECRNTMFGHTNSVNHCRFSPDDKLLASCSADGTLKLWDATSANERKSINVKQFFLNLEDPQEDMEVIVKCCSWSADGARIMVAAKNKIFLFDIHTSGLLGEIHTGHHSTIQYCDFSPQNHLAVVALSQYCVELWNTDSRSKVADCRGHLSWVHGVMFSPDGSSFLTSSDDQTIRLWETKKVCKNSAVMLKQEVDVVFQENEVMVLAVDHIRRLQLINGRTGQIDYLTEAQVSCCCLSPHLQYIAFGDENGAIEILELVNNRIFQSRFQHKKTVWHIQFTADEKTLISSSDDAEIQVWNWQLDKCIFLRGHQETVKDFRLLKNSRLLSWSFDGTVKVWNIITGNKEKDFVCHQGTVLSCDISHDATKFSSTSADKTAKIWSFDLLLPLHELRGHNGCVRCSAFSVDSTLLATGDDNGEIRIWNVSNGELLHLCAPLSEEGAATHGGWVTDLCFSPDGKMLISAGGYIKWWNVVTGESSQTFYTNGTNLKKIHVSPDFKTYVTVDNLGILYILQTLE

[17] = target: Genome polyprotein (dengue virus type 2, UniProt P29990); experiment: Dengue-2 NS5 methyltransferase inhibitors, primary screen, biochemical, confirmation dose response (AID 588689); type: functional
[18] = target: T6, Polyadenylate-binding protein 1 (Homo sapiens, UniProt P11940); experiment: PABP1 MLLE–PAM2 interaction inhibitors, dose response, miRNA deadenylation inhibitor project, biochemical, fluorescence polarization, Cy5-PAM2 peptide, secondary (AID 602260); type: functional; details: read-out: IC50_Mean
[19] = target: T6, Polyadenylate-binding protein 1; experiment: PABP1 MLLE–PAM2 binding inhibitor potency, dose response, biochemical, fluorescence polarization, FITC-PAM2 peptide (AID 602259); type: functional; details: read-out: IC50_Mean
[20] = target: Albumin (Bos taurus, UniProt P02769); experiment: Counterscreen for inhibitors of T-cell receptor (TCR)-CD3 interaction: Fluorescence-based biochemical high throughput dose response assay to identify inhibitors of T-cell receptor (TCR)-CD3 interaction using a TAMRA-labeled BSA probe.; type: functional
[21] = target: Glutathione-S-transferase (Schistosoma japonicum, UniProt Q26513); experiment: biotin-GST/anti-GST TR-FRET signal inhibitors, dose response, artefact control for Vif-APOBEC3G degradation inhibitor project, biochemical (AID 1117362); type: functional
Sequence of Glutathione-S-transferase (Q26513 whole entry): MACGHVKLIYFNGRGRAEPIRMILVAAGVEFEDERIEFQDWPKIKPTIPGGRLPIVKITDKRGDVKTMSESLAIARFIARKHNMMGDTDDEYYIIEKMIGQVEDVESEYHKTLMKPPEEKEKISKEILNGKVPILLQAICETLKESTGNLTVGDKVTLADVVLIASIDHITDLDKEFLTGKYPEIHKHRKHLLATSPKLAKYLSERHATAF

T6 sequence (P11940 whole entry): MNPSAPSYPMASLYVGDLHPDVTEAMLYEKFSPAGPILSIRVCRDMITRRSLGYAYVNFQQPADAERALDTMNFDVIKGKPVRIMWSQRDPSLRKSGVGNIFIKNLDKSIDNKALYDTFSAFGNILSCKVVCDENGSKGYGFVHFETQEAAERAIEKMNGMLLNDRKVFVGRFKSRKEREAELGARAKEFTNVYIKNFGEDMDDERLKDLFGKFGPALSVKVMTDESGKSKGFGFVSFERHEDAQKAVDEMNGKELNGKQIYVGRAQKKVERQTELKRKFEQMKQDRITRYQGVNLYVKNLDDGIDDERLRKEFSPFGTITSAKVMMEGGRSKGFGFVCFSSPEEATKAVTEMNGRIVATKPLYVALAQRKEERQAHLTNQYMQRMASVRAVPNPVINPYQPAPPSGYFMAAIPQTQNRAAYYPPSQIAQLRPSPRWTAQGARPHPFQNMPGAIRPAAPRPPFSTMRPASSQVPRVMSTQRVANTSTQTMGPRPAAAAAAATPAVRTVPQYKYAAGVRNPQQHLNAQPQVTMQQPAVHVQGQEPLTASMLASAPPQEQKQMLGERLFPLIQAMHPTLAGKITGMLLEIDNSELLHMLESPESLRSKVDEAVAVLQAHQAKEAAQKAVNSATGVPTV
Sequence of Large T antigen (P03070 whole entry): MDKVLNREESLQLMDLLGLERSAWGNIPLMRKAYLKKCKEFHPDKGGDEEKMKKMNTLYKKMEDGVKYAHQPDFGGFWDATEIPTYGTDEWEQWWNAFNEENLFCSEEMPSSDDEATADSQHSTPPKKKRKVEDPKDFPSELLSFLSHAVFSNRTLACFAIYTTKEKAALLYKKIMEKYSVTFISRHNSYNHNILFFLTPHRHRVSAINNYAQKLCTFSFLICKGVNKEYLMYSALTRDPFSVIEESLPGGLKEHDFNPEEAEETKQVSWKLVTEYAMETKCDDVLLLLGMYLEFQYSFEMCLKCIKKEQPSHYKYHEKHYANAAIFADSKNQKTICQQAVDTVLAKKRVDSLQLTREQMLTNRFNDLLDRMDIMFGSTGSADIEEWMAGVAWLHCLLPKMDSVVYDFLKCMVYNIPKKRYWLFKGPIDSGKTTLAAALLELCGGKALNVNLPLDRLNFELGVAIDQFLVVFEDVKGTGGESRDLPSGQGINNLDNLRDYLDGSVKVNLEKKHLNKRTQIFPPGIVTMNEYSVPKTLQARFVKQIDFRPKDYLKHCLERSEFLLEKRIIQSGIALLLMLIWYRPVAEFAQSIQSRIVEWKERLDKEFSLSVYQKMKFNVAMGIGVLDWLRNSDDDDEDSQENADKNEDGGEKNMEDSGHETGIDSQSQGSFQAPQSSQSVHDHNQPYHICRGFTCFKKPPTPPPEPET
Sequence of Eukaryotic translation initiation factor 4E (P63073 whole entry): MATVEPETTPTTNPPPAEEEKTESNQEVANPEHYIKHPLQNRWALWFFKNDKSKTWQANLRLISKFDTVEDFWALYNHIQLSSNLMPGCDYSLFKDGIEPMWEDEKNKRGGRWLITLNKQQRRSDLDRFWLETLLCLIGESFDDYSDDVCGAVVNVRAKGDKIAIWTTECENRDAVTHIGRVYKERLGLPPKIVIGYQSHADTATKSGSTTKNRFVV
Sequence of Albumin (P02769 whole entry): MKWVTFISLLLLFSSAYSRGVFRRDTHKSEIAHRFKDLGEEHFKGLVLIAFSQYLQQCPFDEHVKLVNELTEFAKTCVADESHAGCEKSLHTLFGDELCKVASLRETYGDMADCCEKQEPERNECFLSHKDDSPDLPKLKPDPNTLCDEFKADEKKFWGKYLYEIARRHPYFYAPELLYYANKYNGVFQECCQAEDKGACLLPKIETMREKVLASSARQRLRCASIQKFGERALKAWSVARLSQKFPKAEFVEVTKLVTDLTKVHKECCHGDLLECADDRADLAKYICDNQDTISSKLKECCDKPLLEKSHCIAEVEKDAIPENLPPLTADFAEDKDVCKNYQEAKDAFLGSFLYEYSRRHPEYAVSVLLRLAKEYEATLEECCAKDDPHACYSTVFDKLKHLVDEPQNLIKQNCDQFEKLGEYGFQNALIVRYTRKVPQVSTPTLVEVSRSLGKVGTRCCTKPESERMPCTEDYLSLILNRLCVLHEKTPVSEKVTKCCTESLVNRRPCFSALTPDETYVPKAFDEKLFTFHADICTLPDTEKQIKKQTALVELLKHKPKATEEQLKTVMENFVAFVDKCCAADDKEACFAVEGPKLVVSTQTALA
Sequence of Nucleotide-binding oligomerization domain-containing protein 2 (Q9HC29 whole entry, the tested form may be a part): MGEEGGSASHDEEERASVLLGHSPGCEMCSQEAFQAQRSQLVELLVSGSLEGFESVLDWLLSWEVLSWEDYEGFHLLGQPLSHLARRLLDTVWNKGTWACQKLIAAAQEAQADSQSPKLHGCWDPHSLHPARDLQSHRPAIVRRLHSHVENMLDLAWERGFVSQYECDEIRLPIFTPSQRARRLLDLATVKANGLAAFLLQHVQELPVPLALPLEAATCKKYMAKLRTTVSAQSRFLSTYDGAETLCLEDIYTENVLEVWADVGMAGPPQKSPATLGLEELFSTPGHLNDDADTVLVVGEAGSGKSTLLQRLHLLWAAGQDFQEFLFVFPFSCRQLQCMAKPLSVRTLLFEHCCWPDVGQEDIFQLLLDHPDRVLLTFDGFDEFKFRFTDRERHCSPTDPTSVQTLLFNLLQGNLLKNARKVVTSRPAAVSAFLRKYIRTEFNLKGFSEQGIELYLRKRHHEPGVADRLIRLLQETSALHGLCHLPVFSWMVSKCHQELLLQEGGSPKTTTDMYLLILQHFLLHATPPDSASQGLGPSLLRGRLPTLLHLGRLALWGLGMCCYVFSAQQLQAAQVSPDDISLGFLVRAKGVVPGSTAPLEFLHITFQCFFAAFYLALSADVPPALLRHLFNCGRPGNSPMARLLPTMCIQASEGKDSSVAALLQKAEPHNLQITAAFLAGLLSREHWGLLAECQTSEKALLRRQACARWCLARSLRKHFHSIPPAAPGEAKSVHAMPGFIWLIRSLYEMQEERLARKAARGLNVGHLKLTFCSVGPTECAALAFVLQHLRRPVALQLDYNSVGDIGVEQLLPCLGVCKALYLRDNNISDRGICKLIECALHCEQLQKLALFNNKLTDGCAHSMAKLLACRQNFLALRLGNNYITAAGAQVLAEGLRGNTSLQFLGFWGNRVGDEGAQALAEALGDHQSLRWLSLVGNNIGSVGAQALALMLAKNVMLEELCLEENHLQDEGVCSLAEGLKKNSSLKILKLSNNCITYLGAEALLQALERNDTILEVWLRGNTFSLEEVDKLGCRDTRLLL
Sequence of Dual specificity protein phosphatase 3 (P51452 whole entry): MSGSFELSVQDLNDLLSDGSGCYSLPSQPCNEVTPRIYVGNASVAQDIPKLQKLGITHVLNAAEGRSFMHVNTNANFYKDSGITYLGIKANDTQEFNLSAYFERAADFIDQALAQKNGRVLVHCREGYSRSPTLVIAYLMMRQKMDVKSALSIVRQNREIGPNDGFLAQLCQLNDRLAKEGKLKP
Sequence of Induced myeloid leukemia cell differentiation protein Mcl-1 (Q07820 whole entry): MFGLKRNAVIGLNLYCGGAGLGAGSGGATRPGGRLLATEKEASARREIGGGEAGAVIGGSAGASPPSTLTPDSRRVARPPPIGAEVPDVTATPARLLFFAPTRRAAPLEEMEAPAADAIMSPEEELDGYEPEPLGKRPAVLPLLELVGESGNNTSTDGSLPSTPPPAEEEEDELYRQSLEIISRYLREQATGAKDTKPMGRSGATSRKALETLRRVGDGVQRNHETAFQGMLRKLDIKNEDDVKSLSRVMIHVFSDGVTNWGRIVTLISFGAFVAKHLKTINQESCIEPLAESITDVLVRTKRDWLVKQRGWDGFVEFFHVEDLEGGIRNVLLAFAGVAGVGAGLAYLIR
Sequence of Genome polyprotein (P29990 2492-3391 limits assumed): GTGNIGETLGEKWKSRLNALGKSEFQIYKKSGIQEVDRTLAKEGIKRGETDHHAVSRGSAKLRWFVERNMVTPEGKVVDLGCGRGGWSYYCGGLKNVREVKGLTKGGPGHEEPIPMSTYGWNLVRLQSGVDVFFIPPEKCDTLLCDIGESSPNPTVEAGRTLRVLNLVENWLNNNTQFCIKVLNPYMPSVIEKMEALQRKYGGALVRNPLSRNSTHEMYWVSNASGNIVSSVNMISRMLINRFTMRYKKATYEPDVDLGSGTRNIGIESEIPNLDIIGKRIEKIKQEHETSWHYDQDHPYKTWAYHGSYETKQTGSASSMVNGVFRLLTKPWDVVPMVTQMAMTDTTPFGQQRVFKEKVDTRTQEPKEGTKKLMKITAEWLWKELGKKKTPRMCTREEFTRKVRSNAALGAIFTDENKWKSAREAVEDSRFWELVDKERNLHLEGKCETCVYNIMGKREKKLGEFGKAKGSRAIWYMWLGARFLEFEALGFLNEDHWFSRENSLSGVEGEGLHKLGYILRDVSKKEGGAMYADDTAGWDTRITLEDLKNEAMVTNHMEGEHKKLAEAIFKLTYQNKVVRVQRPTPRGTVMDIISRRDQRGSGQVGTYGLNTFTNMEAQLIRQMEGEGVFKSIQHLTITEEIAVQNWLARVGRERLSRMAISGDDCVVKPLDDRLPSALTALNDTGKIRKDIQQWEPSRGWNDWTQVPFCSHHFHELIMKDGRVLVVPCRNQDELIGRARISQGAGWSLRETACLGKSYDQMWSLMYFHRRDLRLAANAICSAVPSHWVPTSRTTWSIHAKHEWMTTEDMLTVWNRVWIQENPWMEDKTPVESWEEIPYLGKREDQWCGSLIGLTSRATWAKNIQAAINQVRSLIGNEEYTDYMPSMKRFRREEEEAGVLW

CCCCn1c(SCC(=O)Nc2nnc(CC)s2)nc2c1c(=O)n(C)c(=O)n2C
IC50 [1]: > 25 µM (inactive) | IC50 [2]: > 25 µM (inactive) | IC50 [3]: > 25 µM (inactive) | IC50 [4]: 7.19 µM (active) | IC50 [5]: > 20 µM (inactive) | IC50 [6]: 7.92 µM (active) | IC50 [7]: 9.39 µM (active) | IC50 [8]: > 20 µM (inactive)

COCCNC(=O)Nc1ccc2nc(-c3ccco3)c(-c3ccco3)nc2c1
IC50 [9]: > 100 µM (active) | IC50 [10]: 0.831 µM (active) | IC50 [11]: 0.492 µM (active) | AC50 [12]: 63.1 µM (active) | AC50 [13]: 23.5 µM (active) | IC50 [14]: 0.198 µM (active) | IC50 [15]: 50 µM (inactive) | IC50 [16]: 52 µM (active) | IC50 [17]: 27.9 µM (active) | IC50 [18]: > 66 µM (inactive) | IC50 [19]: 39.2 µM (inactive) | IC50 [20]: > 94.1 µM (inactive) | IC50 [21]: > 100 µM (active)
